Experimental data taken from patent US9255080B2, “Quinazolinedione derivatives as PARP inhibitors” (Janssen Pharmaceutica NV, priority 2004, dated 2016).
Where two headings read alike, the source gives them in different places.

Legend:
TANK-2 enzyme = target: T1, TANK-2 enzyme (Homo sapiens, UniProt Q9H2K2); experiment: In vitro scintillation proximity assay (SPA) for TANK-2 inhibitory activity; assay type: biochemical
T1 construct: made in house
T1 sequence (Q9H2K2 1-1166): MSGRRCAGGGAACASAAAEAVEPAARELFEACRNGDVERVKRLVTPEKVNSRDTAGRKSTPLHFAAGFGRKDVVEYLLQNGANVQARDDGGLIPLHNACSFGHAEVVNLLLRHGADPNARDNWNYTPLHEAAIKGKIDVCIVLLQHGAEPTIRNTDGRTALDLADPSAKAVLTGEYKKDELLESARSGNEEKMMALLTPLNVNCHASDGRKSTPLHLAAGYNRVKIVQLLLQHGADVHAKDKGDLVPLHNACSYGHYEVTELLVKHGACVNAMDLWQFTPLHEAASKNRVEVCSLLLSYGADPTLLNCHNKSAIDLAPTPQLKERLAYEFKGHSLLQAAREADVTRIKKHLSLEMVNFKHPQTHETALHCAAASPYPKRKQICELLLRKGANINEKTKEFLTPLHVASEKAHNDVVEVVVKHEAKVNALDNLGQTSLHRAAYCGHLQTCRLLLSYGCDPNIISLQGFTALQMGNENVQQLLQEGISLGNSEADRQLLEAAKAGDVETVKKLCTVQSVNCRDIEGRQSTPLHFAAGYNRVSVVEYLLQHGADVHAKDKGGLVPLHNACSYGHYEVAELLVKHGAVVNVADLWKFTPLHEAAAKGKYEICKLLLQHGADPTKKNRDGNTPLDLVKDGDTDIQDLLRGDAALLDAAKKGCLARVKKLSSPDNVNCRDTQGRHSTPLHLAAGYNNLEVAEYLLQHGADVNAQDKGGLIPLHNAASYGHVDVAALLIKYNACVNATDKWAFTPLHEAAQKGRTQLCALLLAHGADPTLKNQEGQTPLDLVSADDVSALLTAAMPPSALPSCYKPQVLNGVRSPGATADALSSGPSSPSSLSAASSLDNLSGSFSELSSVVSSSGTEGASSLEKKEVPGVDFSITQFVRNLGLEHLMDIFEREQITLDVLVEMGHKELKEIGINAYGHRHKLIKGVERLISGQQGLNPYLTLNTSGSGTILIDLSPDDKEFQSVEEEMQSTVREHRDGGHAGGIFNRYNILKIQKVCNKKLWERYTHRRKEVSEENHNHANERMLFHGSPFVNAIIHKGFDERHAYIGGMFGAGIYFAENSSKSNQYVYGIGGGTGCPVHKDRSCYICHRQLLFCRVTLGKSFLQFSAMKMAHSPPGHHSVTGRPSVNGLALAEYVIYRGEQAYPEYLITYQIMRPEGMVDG
Procedure: In Vitro Scintillation Proximity Assay (SPA) for TANK-2 Inhibitory Activity
Compounds of the present invention were tested in an in vitro assay based on SPA technology with Ni Flash plates (96 or 384 well).
In principle, the assay relies upon SPA technology for the detection of auto-poly(ADP-ribosyl)ation of TANK-2 protein using [^3H]-nicotinamide adenine dinucleotide ([^3H]-NAD^+) as ADP-ribosyl donor.
A stock solution of [^3H]-NAD^+/NAD was made by adding 64.6 μl of [^3H]-NAD^+ (0.1 mCi/ml, supplier: Perkin Elmer) and 46.7 μl NAD-stock (10.7 mM, stored at −20° C., supplier Roche) to 1888.7 μl assay buffer (60 mM Tris/HCl, pH 7.4; 0.9 mM DTT; 6 mM MgCl2). The TANK-2 enzyme was produced as described in EP1238063. 60 μl of assay buffer, together with 1 μl of compound in DMSO, 20 μl of [^3H]-NAD^+/NAD and 20 μl of TANK-2 enzyme (final concentration 6 μg/ml) was added per well into a 96-well Ni-coated flash plate (Perkin Elmer). After incubation of the mixture for 120 min. at room temperature, the reaction was terminated by adding 60 μl of stopsolution (42.6 mg NAD in 6 ml H2O). The plates were covered with a plate sealer and placed in a TopCountNXT™ (Packard) for scintillation counting. Values were expressed as counts per minute (cpm). For each experiment, controls (containing TANK-2 enzyme and DMSO without compound), a blank incubation (containing DMSO but no TANK-2 enzyme or compound) and samples (containing TANK-2 enzyme and compound dissolved in DMSO) were run in parallel. All compounds tested were dissolved and eventually further diluted in DMSO. In first instance, compounds were tested at a concentration of 10^−5M. […] In each test, the blank value was subtracted from both the control and the sample values. The control sample represented maximal TANK-2 enzyme activity. For each sample, the amount of cpm was expressed as a percentage of the mean cpm value of the controls. When appropriate, IC50-values (concentration of the drug, needed to reduce the TANK-2 enzyme activity to 50% of the control) were computed using linear interpolation between the experimental points just above and below the 50% level. Herein the effects of test compounds are expressed as pIC50 (the negative log value of the IC50-value). As reference compounds, 3-aminobenzamide and 4-amino-1,8-naphthalimide were included to validate the SPA assay. Herein the assay was described using 96-well plates. In the assay using 384-well plates the same final concentrations were used and volumes were adapted.

[1] = auto-poly(ADP-ribosyl)ation, [3H]-NAD+, 96-well results if available, otherwise 384-well, read-out: in vitro SPA assay TANK-2 pIC50 (converted)

Row | IC50 (TANK-2 enzyme; [1]) | SMILES | melting point | IC50 (TANK-2 enzyme)
1 | > 10 µM | O=c1[nH]c(=O)n(C2CCN(CC(O)C3CCc4ccccc4O3)CC2)c2ccccc12 (stereo in doubt) [Compound 9, 1-[1-[(2S)-2-[(2R)-3,4-dihydro-2H-1-benzopyran-2-yl]-2-hydroxyethyl]-4-piperidinyl]-2,4(1H,3H)-quinazolinedione] | – | –
2 | > 10 µM | O=C(CCCN1CCC(n2c(=O)[nH]c(=O)c3ccccc32)CC1)c1ccc(F)cc1 [Compound 2] | 195 °C | –
3 | – | O=c1[nH]c(=O)n(CCCN2CCC(c3c[nH]c4ccccc34)CC2)c2ccccc12 [Compound 3] | 216.8 °C | > 10 µM
4 | 7.57 µM | O=c1[nH]c(=O)n(C2CCN(CCCn3c(=O)[nH]c4ccccc43)CC2)c2ccccc12 [Compound 5] | – | –
5 | 7.19 µM | O=C(c1ccc(F)cc1)C1CCN(CCn2c(=O)[nH]c(=O)c3ccccc32)CC1 [Compound 10, 1-[2-[4-(4-fluorobenzoyl)-1-piperidinyl]ethyl]-2,4-(1H,3H)-quinazolinedione] | – | –
6 | > 10 µM | O=C(c1ccc(F)cc1)C1CCN(CCCn2c(=O)[nH]c(=O)c3ccccc32)CC1 [Compound 11, 1-[3-[4-(4-fluorobenzoyl)-1-piperidinyl]propyl]-2,4-(1H,3H)-quinazolinedione] | – | –

Row | SMILES | IC50 (TANK-2 enzyme; [1]) | melting point | IC50 (TANK-2 enzyme)
7 | O=c1[nH]c(=O)n(C2CCNCC2)c2ccccc12 [Compound 1] | > 10 µM | 253.7 °C | –
8 | O=c1[nH]c(=O)n(CCN2CCC(O)(c3ccc(Cl)cc3)CC2)c2ccccc12 [Compound 6] | 1.38 µM | – | –
9 | O=c1[nH]c(=O)n(CCCN2CCC(O)(c3ccc(Cl)cc3)CC2)c2ccccc12 [Compound 7] | > 10 µM | – | –
